Reference: patent US20260373226A1, “METHODS AND COMPOSITIONS FOR THE TREATMENT OF NEURODEGENERATIVE DISEASE” (Stealth BioTherapeutics Inc., priority 2022, published 2026)
Entries after “also recorded” stand apart in the source; their conditions may differ.

How the values were obtained:
[1] = Phase 1 clinical safety and tolerability in healthy volunteers; type: in vivo, human; conditions: Phase 1, healthy volunteers, SC; interim data analysis
Text: (§1) The primary objective of this study is to evaluate the safety and tolerability of single and multiple ascending doses of SBT-272 administered via subcutaneous injection in healthy volunteers. The secondary objects of this study are to: (a) evaluate the plasma PK of SBT-272 in healthy volunteers following subcutaneous administration of single and multiple ascending doses; and (b) to determine an appropriate dose range for subsequence clinical evaluation.

[2] = Steady state PK in plasma, CSF, brain cortex after 10 daily s.c. doses in nonhuman primates; type: in vivo, cynomolgus monkey
Protocol: (§2) Pharmacokinetic profile of SBT-272 in nonhuman primate plasma, CSF, and brain. The objective of this study was to determine the pharmacokinetic profile of SBT-272 in CSF and plasma when delivered by subcutaneous (SC) injection for 10 days to cynomolgus monkeys. SBT-272 solution was administered daily by SC injection for 10 days. The following parameters and endpoints were evaluated in this study: mortality, clinical observations, body weights, pharmacokinetic samples (CSF and plasma), and selected tissue collection. There was no mortality during the study. […] Additional details regarding the experimental protocol are provided below.
(§3) Test System. Details Regarding the Test System are Provided Below: • Species: Nonhuman primate • Strain/Breed: Cynomolgus monkey • Animal Condition: Non-naïve • Animal Procurement Method: In-house colony • Animal Supplier: Charles River Laboratories • Animal Supplier Location: 531 Boul des Prairies, Laval, QC H7V 1B7, Canada • Animal Origin: Asia • Number of Males: 3 • Age at the Initiation of Dosing: 18 to 60 months • Weight at the Initiation of Dosing: 1.4 to 5.0 kg
Study design. The study design is described in Table 9.
(§4) • Route of Administration: Subcutaneous injection into the scapular and mid-dorsal areas • Treatment Frequency: Daily • Treatment Duration: 10 days • Method: The first day of dosing is designated as Day 1. Dose formulations are allowed to warm up at ambient temperature for at least 30 minutes prior to dosing, as appropriate. The animals are temporarily restrained for dose administration and are not be sedated. The volume for each dose is administered over 1 (preferred) or 2 (as necessary) separate injections within the designated area. Injection sites are rotated daily (see FIG. 4B). If a designated subcutaneous test site is not available for a given animal on any day, then the next available test site in the rotation should be used for dosing. The injection area is marked as frequently as required to allow appropriate visualization of administration sites. Hair may be clipped or shaved if required to improve visualization of the injection sites. On the last injection occasion for each quadrant, the last site of injection is circled, and the circled site is collected at necropsy.
CSF Sample Processing. CSF samples re processed and stored within 1 hour of collection. Following each CSF collection, the sample is visually inspected, and the appearance is recorded. Samples are maintained on wet ice prior to and after centrifugation. Samples are centrifuged for 5 minutes in a refrigerated centrifuge (set to maintain 4 °C) at 2000 g RCF within 1 hour of collection. The resultant supernatant is collected within 30 minutes (as quickly as possible) of centrifugation and will be visually inspected; the appearance of the supernatant and any traces of blood in the pellet re recorded. Precipitate (if any) is discarded. CSF samples are separated into 2 approximately 100 μL equal aliquots into uniquely labelled low protein binding polypropylene tubes each containing 10 μL of 5% (v/v) phosphoric acid aqueous solution. Any remaining CSF will be transferred into a 3rd low protein binding polypropylene tube containing a volume of 5% (v/v) phosphoric acid solution adjusted to result in a 1:10 ratio of acid solution: CSF. All samples are placed on dry ice and transferred to a freezer set to maintain −70 °C.
Plasma Sample Processing. […]

[3] = Time-concentration profile in plasma, CSF and brain, rat versus nonhuman primate; type: in vivo; conditions: FIGS. 4A and 4C; equivalent dose levels, single or repeated SC dosing
Protocol: Pharmacokinetic profile of SBT-272 in rat plasma, CSF, and brain (for FIG. 4A). Briefly, as described elsewhere herein, male Sprague-Dawley (SD) rats were subcutaneously administered a single, 10 mg/kg dose of SBT-272. Plasma, CSF, and brain (microdialysis) samples were obtained at the time points indicated on FIG. 4A and analyzed for SBT-272 concentration by HPLC with tandem mass spectrometry (HPLC-MS/MS).
as §2

[4] = Tolerability in nonhuman primates, 10 daily SC injections; type: in vivo, cynomolgus monkey; conditions: 10 days
Protocol: as §2, §3
as §4, with “On the last injection occasion for each quadrant, the last site of injection is circled, and the circled site is collected at necropsy.” left out

[5] = Phase 1 clinical plasma PK in healthy volunteers; type: in vivo, human
Text: as §1

[6] = tested on: models of neurodegeneration; test: In vitro effect concentration (in vitro-in vivo correlation); type: cell-based; conditions: FIG. 3A
Text: (§5) See Guatam M., Platform presentation. NEALS, 2022. […] See Keefe, et al. (2019); Gautam, et al. (2022); Guatam, et al. (2021). Gautam, et al., SBT-272 improved mitochondria structure and function and preserved upper motor neurons with TDP-43 pathology, Platform poster presentation, presented at NEALS poster session (2022); Bido, et al. (2021); Silva, et al. (2022); and Zariwala, et al., Effects of the mitochondria-targeting small molecule SBT-272 in the R6/2 transgenic mice of Huntington's Disease, Poster presented at Keystone Symposia poster Session, 2022.

[7] = tested on: models of neurodegeneration; test: In vivo effect brain concentration (in vitro-in vivo correlation)
Text: as §5

## Cc1cc(O)cc(C)c1C[C@H](NC(=O)[C@H](N)CCCNC(=N)N)C(=O)N[C@@H](CCCCN)c1nc(Cc2ccccc2)no1 [SBT-272, (R)-2-amino-N—((S)-1-(((S)-5-amino-1-(3-benzyl-1,2,4-oxadiazol-5-yl)pentyl)amino)-3-(4-hydroxy-2,6-dimethylphenyl)-1-oxopropan-2-yl)-5-guanidinopentanamide]
[1]
  safety profile: consistent safety profile; also recorded: generally safe
[2]; cynomolgus monkey, 5 mg/kg s.c., 10 daily doses
  plasma:CSF ratio: 6.40
[2]; cynomolgus monkey, brain (cortex), 5 mg/kg s.c., 10 daily doses
  brain:CSF ratio: 328
[2]; in vivo, sc, cynomolgus monkey, brain (cortex), 5 mg/kg s.c., 10 daily doses, read-out: brain:plasma ratio
  Kp: 51
[2]; nonhuman primate, FIGS. 5A-5B
  brain drug concentration versus predictions based on rodent studies: met predictions based on rodent studies
[2]; rat and nonhuman primate, repeated SC dosing
  correlation between species in steady state brain concentration at trough: excellent correlation between species in steady state brain concentration at trough
[3]
  time-concentration profile in plasma, CSF, and brain, rat versus nonhuman primate: very similar in rat and nonhuman primate
[4]; 5 mg/kg/day SC
  body weight differences related to administration: no differences in body weights
  mortality: no mortality
[4]; SC injection at 5 mg/kg/day
  tolerability: well tolerated
[5]; Phase 1, healthy volunteers, SC
  clinical PK versus expectations based on rat and nonhuman primate profiles: consistent with expectations based on rat and nonhuman primate profiles
[5]; healthy subjects, FIG. 7, 40 mg once daily, interim
  clinical PK profile versus non-clinical allometric scaling predictions: consistent with non-clinical allometric scaling predictions
[6]
  optimal in vitro effects, concentration: 10 to 100 nM
[7]; FIG. 3B
  optimal in vivo effects, concentration: 10 to 100 nM
[7]; from in vitro and in vivo correlations
  brain concentration as a potential target for pharmacodynamic effect: 10 to 100 nM
